Experimental data as given in US12122802B2, “D-allose crystal and production method thereof” (MATSUTANI CHEMICAL INDUSTRY CO., LTD., priority 2019, dated 2024).

How the values were obtained:
[1] = water content in crystals from weight loss on drying under reduced pressure at 70° C. for 18 hours; format: physicochemical; conditions: hydrous D-allose crystals (purity 99.9%, water content 17.7%) dried under the named drying conditions
Procedure: (§1) In order to measure the water content in the crystals obtained by each of the drying methods, drying under reduced pressure under conditions at 70° C. for 18 hours was performed to calculate the water content in the crystals from the weight loss through the drying under reduced pressure. The repose angle was measured by the method described above to determine the degree of fluidity. The yield rate was calculated by the following expression. Yield rate (%)=(D/C)×100 [Expression 4]

[2] = repose angle measured by powder tester PT-E (fluidity of anhydrous D-allose crystals); format: physicochemical; conditions: for Degree of fluidity: drying tests of Table 6, evaluated from repose angle according to Table 4
Procedure: The fluidity of the anhydrous D-allose crystals obtained by drying the hydrous crystals obtained in each of Tests Nos. 1 to 12 with an evaporator (30° C., 20 hPa (abs), about 2 hours) as described above was evaluated by the repose angle measured by a powder tester PT-E (manufactured by Hosokawa Micron Corporation). Specifically, a sample was dropped and deposited on a disk, and the inclination angle was measured from three directions to obtain an average value. From the average value, the degree of fluidity was evaluated according to Table 1 in the Japanese Pharmacopoeia, 17th edition, Reference Information G2 physical property-related “Powder Fluidity” (same as the so-called Carr's fluidity index table, shown as Table 4).
as §1

active oxygen in cells = conditions: cited from earlier work
cancer cells = conditions: cited from earlier work
[3] = in vivo; cited from earlier work
[4] = particle size distribution by laser diffraction (Mastersizer 3000, dry dispersion unit Aero S); format: physicochemical; conditions: average of 5 measurements, dispersion pressure 1.0 bar
Source text: The melting point (Tm) in the DSC refers to the melting start temperature of the endothermic peak obtained by DSC measurement (temperature at the extrapolated intersection of the base line and the maximum slope line of the endothermic peak), and the melting enthalpy (ΔH) refers to the area of the endothermic peak (ASTM D3418-15, Standard Test Method for Transition Temperatures and Enthalpies of Fusion and Crystallization of Polymers by Differential Scanning calorimetry). Further, in the present invention, the average particle size refers to the volume-based average particle size d[4,3], which is usually measured with a laser diffraction particle size distribution analyzer.
Next, the particle size distribution of the anhydrous D-allose crystals of the present invention was examined. Specifically, the anhydrous D-allose crystals obtained in the previous Test Nos. 1 to 5, 7 to 10 and 12, were subjected to measurement of particle size distribution under the measurement conditions shown in Table 7 using “Mastersizer 3000” and a “dry dispersion unit Aero S” manufactured by Malvern Instruments. More specifically, the measurement was repeated 5 times, and the average value of the 5 times measurements was used. No great variability was seen among the 5 times measurement values. The particle size distribution was expressed on a volume basis, and the volume-based average particle size d[4,3] and standard deviation σ were recorded. Also, the coefficient of variation CV=σ/d[4,3] was calculated in order to relatively evaluate the variation in the particle size distribution.

[5] = aspect ratio of crystals from microscopic picture (Digital microscope VHX-5000, 50x); format: physicochemical
Source text: The “anhydrous D-allose crystals” of the present invention have an extremely large average particle size as described above and are not in a fine needle form, having a characteristic aspect ratio of the crystal. In the present invention, the aspect ratio refers to the ratio of the long diameter to the short diameter of a crystal (short diameter: minimum length of lines passing through the center of gravity of the plane shape of a crystal, long diameter: maximum length of a crystal measured orthogonal to the short diameter). In the present specification, the aspect ratio in a numerical range from A to B (A and B: arbitrary numbers) means that all of the aspect ratios of a specified number (preferably at least 10, for example 10) of crystal particles randomly selected are within the numerical range. Example of random selection of crystal particles includes a method comprising taking a microscopic picture of crystals at 20× to 50× magnification and, from the crystals on the diagonal line drawn from the upper left to the lower right of the microscopic picture taken, selecting 10 crystals with a full body shown in order from the upper left on the diagonal line. Specifically, the aspect ratio is preferably 1.0 to 10.0, more preferably 2.0 to 8.0, still more preferably 2.0 to 7.0. Next, the aspect ratio of the anhydrous D-allose crystals of the present invention was examined. Specifically, a microscopic picture of each of the anhydrous D-allose crystals obtained in the previous Test Nos. 1 to 5, 7 to 10 and 12 were taken using “Digital microscope VHX-5000” manufactured by KEYENCE Corporation (50×magnification). Among the crystals on the diagonal line drawn from the upper left to the lower right of the microscopic picture taken, 10 crystals with a full picture shown were selected in order from the upper left and then the long diameter and the short diameter of each crystal were measured for calculation of the aspect ratio (Long diameter/Short diameter, wherein short diameter refers to minimum length of lines passing through the center of gravity of the plane shape of a crystal, and long diameter refers to maximum length of a crystal measured orthogonal to the short diameter). The minimum value of the aspect ratio was 1.1 and the maximum value was 9.6 (Table 9).

[6] = drying tests of Table 6, crystals after the named drying conditions

Compound: O=C[C@H](O)[C@H](O)[C@H](O)[C@H](O)CO [Conductive heat transfer drying at 40° C.] [D-allose]
- Water content (%) after drying [1]: 0.13%
- Repose angle (degrees) [2, 6]: 41.3 degrees
- Degree of fluidity [2]: Passable (41~45)

Compound: O=C[C@H](O)[C@H](O)[C@H](O)[C@H](O)CO [Conductive heat transfer drying at 50° C.] [D-allose]
- Water content (%) after drying [1]: 0.099%
- Repose angle (degrees) [2, 6]: 42 degrees
- Degree of fluidity [2]: Passable (41~45)

Compound: O=C[C@H](O)[C@H](O)[C@H](O)[C@H](O)CO [Conductive heat transfer drying at 60° C.] [D-allose]
- Water content (%) after drying [1]: 0.18%
- Repose angle (degrees) [2, 6]: 41.7 degrees
- Degree of fluidity [2]: Passable (41~45)

Compound: O=C[C@H](O)[C@H](O)[C@H](O)[C@H](O)CO [Conductive heat transfer drying at 70° C.] [D-allose]
- Water content (%) after drying [1]: 0.105%
- Repose angle (degrees) [2, 6]: 44 degrees
- Degree of fluidity [2]: Passable (41~45)

Compound: O=C[C@H](O)[C@H](O)[C@H](O)[C@H](O)CO [Convection heat transfer drying at 40° C., Air supply: 3900 ] [D-allose]
- Water content (%) after drying [1]: 0.14%
- Repose angle (degrees) [2, 6]: 41.3 degrees
- Degree of fluidity [2]: Passable (41~45)

Compound: O=C[C@H](O)[C@H](O)[C@H](O)[C@H](O)CO [Convection heat transfer drying at 40° C., Air supply: 6000 ] [D-allose]
- Water content (%) after drying [1]: 0.13%
- Repose angle (degrees) [2, 6]: 41.7 degrees
- Degree of fluidity [2]: Passable (41~45)

Compound: O=C[C@H](O)[C@H](O)[C@H](O)[C@H](O)CO [Convection heat transfer drying at 50° C., Air supply: 4700 ] [D-allose]
- Water content (%) after drying [1]: 0.13%
- Repose angle (degrees) [2, 6]: 42 degrees
- Degree of fluidity [2]: Passable (41~45)

Compound: O=C[C@H](O)[C@H](O)[C@H](O)[C@H](O)CO [D-allose]
- effect on generation of active oxygen in cells (active oxygen in cells): effect for suppressing generation of active oxygen in cells
- effect on growth of cancer cells (cancer cells): effect for suppressing growth of cancer cells
- effect on increase in blood pressure [3]: effect for suppressing an increase in blood pressure

Compound: O=C[C@H](O)[C@H](O)[C@H](O)[C@H](O)CO [Test No. 8, D-allose]
- d [4, 3] (volume-based average particle size) ([4]; listed as 8): 708 μm
- Repose angle (degrees) ([2]; anhydrous crystals of Test Nos. 1 to 12, hydrous crystals dried with evaporator (30° C., 20 hPa (abs), about 2 hours), average of three directions, listed as 8): 41.7 degrees
- Aspect ratio (Long diameter/Short diameter) ([5]; crystal ① of 10 selected, listed as 8): 3.5
- Aspect ratio (Long diameter/Short diameter) ([5]; crystal ② of 10 selected, listed as 8): 7.7
- Aspect ratio (Long diameter/Short diameter) ([5]; crystal ③ of 10 selected, listed as 8): 2.0
- Aspect ratio (Long diameter/Short diameter) ([5]; crystal ④ of 10 selected, listed as 8): 3.6
- Aspect ratio (Long diameter/Short diameter) ([5]; crystal ⑤ of 10 selected, listed as 8): 3.1
- Aspect ratio (Long diameter/Short diameter) ([5]; crystal ⑥ of 10 selected, listed as 8): 2.8
- Aspect ratio (Long diameter/Short diameter) ([5]; crystal ⑦ of 10 selected, listed as 8): 3.8
- Aspect ratio (Long diameter/Short diameter) ([5]; crystal ⑧ of 10 selected, listed as 8): 4.7
- Aspect ratio (Long diameter/Short diameter) ([5]; crystal ⑨ of 10 selected, listed as 8): 1.7
- Aspect ratio (Long diameter/Short diameter) ([5]; crystal ⑩ of 10 selected, listed as 8): 3.3

Compound: O=C[C@H](O)[C@H](O)[C@H](O)[C@H](O)CO [Test No. 9, D-allose]
- d [4, 3] (volume-based average particle size) ([4]; listed as 9): 600 μm
- Repose angle (degrees) ([2]; anhydrous crystals of Test Nos. 1 to 12, hydrous crystals dried with evaporator (30° C., 20 hPa (abs), about 2 hours), average of three directions, listed as 9): 41.0 degrees
- Aspect ratio (Long diameter/Short diameter) ([5]; crystal ① of 10 selected, listed as 9): 6.2
- Aspect ratio (Long diameter/Short diameter) ([5]; crystal ② of 10 selected, listed as 9): 4.3
- Aspect ratio (Long diameter/Short diameter) ([5]; crystal ③ of 10 selected, listed as 9): 5.7
- Aspect ratio (Long diameter/Short diameter) ([5]; crystal ④ of 10 selected, listed as 9): 3.0
- Aspect ratio (Long diameter/Short diameter) ([5]; crystal ⑤ of 10 selected, listed as 9): 3.5
- Aspect ratio (Long diameter/Short diameter) ([5]; crystal ⑥ of 10 selected, listed as 9): 5.9
- Aspect ratio (Long diameter/Short diameter) ([5]; crystal ⑦ of 10 selected, listed as 9): 4.6
- Aspect ratio (Long diameter/Short diameter) ([5]; crystal ⑧ of 10 selected, listed as 9): 2.6
- Aspect ratio (Long diameter/Short diameter) ([5]; crystal ⑨ of 10 selected, listed as 9): 3.6
- Aspect ratio (Long diameter/Short diameter) ([5]; crystal ⑩ of 10 selected, listed as 9): 1.9

Compound: O=C[C@H](O)[C@H](O)[C@H](O)[C@H](O)CO [Test No. 10, D-allose]
- d [4, 3] (volume-based average particle size) ([4]; listed as 10): 492 μm
- Repose angle (degrees) ([2]; anhydrous crystals of Test Nos. 1 to 12, hydrous crystals dried with evaporator (30° C., 20 hPa (abs), about 2 hours), average of three directions, listed as 10): 41.3 degrees
- Aspect ratio (Long diameter/Short diameter) ([5]; crystal ① of 10 selected, listed as 10): 1.6
- Aspect ratio (Long diameter/Short diameter) ([5]; crystal ② of 10 selected, listed as 10): 3.9
- Aspect ratio (Long diameter/Short diameter) ([5]; crystal ③ of 10 selected, listed as 10): 5.6
- Aspect ratio (Long diameter/Short diameter) ([5]; crystal ④ of 10 selected, listed as 10): 2.1
- Aspect ratio (Long diameter/Short diameter) ([5]; crystal ⑤ of 10 selected, listed as 10): 4.0
- Aspect ratio (Long diameter/Short diameter) ([5]; crystal ⑥ of 10 selected, listed as 10): 9.6
- Aspect ratio (Long diameter/Short diameter) ([5]; crystal ⑦ of 10 selected, listed as 10): 2.3
- Aspect ratio (Long diameter/Short diameter) ([5]; crystal ⑧ of 10 selected, listed as 10): 3.3
- Aspect ratio (Long diameter/Short diameter) ([5]; crystal ⑨ of 10 selected, listed as 10): 4.6
- Aspect ratio (Long diameter/Short diameter) ([5]; crystal ⑩ of 10 selected, listed as 10): 5.4

Compound: O=C[C@H](O)[C@H](O)[C@H](O)[C@H](O)CO [Test No. 12, D-allose]
- d [4, 3] (volume-based average particle size) ([4]; listed as 12): 333 μm
- Repose angle (degrees) ([2]; anhydrous crystals of Test Nos. 1 to 12, hydrous crystals dried with evaporator (30° C., 20 hPa (abs), about 2 hours), average of three directions, listed as 12): 41.3 degrees
- Aspect ratio (Long diameter/Short diameter) ([5]; crystal ① of 10 selected, listed as 12): 3.1
- Aspect ratio (Long diameter/Short diameter) ([5]; crystal ② of 10 selected, listed as 12): 3.3
- Aspect ratio (Long diameter/Short diameter) ([5]; crystal ③ of 10 selected, listed as 12): 4.2
- Aspect ratio (Long diameter/Short diameter) ([5]; crystal ④ of 10 selected, listed as 12): 3.8
- Aspect ratio (Long diameter/Short diameter) ([5]; crystal ⑤ of 10 selected, listed as 12): 3.6
- Aspect ratio (Long diameter/Short diameter) ([5]; crystal ⑥ of 10 selected, listed as 12): 4.4
- Aspect ratio (Long diameter/Short diameter) ([5]; crystal ⑦ of 10 selected, listed as 12): 4.7
- Aspect ratio (Long diameter/Short diameter) ([5]; crystal ⑧ of 10 selected, listed as 12): 3.7
- Aspect ratio (Long diameter/Short diameter) ([5]; crystal ⑨ of 10 selected, listed as 12): 3.7
- Aspect ratio (Long diameter/Short diameter) ([5]; crystal ⑩ of 10 selected, listed as 12): 1.3

Compound: O=C[C@H](O)[C@H](O)[C@H](O)[C@H](O)CO [Ultra-low humidity drying (20 to 24° C.), D-allose]
- Water content (%) after drying [1]: 0.052%
- Repose angle (degrees) [2, 6]: 45.7 degrees
- Degree of fluidity [2]: Passable (41~45)
